% of control, % of inhibition and % binding data for ten molecules are collected here from ChEMBL document CHEMBL5465560, “Selectivity Literature for EUbOPEN Chemogenomic Library” (2024).

SMILES strings stand for the structures.

Assay [1] deals with Serine/threonine-protein kinase PAK 6 (Homo sapiens) (UniProt Q9NQU5). Kind of assay: Selectivity interaction (Kinase panel (Z-LYTE Assay)) EUB0001632a PAK6. The conditions noted are these: at 10 µM.
Assay [2] deals with Bone morphogenetic protein receptor type-1B (Homo sapiens, UniProt O00238). Kind of assay: Selectivity interaction (KinomeScan (DiscoverX)) EUB0000595a BMPR1B. Conditions: at 10 µM.
The target of assay [3] is T1, Mitogen-activated protein kinase kinase kinase 12 (Homo sapiens) (UniProt Q12852).
T1 sequence (whole entry): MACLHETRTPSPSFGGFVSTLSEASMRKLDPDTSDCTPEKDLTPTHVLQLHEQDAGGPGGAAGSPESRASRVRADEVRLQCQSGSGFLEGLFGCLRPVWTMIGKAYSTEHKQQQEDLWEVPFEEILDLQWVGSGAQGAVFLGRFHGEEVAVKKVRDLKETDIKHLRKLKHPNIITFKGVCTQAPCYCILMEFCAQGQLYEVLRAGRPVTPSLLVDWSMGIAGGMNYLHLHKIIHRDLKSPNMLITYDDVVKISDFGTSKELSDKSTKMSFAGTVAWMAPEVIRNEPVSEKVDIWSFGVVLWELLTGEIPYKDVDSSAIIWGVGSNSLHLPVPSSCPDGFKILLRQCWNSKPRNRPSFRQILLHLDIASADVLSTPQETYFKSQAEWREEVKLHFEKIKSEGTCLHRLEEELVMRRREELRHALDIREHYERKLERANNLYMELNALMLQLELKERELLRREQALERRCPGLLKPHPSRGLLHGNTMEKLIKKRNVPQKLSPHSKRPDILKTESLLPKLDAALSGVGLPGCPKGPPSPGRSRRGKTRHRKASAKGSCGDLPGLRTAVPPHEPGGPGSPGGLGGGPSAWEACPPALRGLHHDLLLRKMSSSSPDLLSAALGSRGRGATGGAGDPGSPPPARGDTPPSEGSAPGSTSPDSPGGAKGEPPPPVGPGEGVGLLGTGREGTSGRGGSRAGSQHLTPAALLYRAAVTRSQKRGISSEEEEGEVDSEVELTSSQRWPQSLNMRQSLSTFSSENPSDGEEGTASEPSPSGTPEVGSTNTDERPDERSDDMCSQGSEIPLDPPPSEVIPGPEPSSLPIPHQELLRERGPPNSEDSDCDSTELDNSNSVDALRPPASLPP
Briefly: Selectivity interaction (KinomeScan (DiscoverX)) EUB0000595a MAP3K12. Conditions: at 10 µM.

The target of assay [4] is Mitogen-activated protein kinase 9 (Homo sapiens, UniProt P45984). Conditions: at 10 µM.
Sequence of Mitogen-activated protein kinase 9 (P45984 whole entry, looked up): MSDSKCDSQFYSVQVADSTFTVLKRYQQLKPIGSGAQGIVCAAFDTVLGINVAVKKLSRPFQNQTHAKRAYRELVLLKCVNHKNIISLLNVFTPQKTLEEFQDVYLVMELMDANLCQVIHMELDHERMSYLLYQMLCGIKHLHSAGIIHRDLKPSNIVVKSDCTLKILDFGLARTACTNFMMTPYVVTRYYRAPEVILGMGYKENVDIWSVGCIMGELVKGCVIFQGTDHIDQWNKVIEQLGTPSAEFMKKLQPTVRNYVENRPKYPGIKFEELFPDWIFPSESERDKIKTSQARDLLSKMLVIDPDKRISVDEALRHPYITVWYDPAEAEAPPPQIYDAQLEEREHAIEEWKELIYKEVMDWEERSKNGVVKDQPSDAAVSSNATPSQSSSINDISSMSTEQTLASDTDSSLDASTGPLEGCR
For assay [5], the target named is Tyrosine-protein kinase BTK (Homo sapiens, UniProt Q06187). The conditions noted are these: at 10 µM.
Sequence of Tyrosine-protein kinase BTK (Q06187 whole entry): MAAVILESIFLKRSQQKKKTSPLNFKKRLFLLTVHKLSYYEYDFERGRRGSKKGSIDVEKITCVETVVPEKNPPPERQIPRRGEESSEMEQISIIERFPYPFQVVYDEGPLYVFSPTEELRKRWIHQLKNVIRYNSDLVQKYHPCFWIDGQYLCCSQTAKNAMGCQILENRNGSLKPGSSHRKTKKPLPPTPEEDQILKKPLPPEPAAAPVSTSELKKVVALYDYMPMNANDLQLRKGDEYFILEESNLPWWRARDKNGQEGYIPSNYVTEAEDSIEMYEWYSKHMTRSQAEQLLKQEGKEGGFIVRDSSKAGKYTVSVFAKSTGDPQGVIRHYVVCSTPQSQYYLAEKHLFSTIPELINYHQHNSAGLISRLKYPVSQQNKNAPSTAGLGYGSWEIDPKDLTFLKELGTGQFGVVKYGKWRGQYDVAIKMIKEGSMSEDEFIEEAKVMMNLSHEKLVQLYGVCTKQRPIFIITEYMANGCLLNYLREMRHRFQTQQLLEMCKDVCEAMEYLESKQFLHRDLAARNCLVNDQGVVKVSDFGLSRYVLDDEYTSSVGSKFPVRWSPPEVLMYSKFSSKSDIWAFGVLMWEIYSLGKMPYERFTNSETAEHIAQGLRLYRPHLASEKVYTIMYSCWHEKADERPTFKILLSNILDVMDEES
Assay [6] addresses Serine/threonine-protein kinase WNK4 (Homo sapiens) (UniProt Q96J92). Kind of assay: Selectivity interaction (KinomeScan (DiscoverX)) EUB0000695a WNK4. Conditions: at 100 nM.
Assay [7] addresses T2, Tyrosine-protein kinase ZAP-70 (Homo sapiens) (UniProt P43403).
T2 sequence (whole entry): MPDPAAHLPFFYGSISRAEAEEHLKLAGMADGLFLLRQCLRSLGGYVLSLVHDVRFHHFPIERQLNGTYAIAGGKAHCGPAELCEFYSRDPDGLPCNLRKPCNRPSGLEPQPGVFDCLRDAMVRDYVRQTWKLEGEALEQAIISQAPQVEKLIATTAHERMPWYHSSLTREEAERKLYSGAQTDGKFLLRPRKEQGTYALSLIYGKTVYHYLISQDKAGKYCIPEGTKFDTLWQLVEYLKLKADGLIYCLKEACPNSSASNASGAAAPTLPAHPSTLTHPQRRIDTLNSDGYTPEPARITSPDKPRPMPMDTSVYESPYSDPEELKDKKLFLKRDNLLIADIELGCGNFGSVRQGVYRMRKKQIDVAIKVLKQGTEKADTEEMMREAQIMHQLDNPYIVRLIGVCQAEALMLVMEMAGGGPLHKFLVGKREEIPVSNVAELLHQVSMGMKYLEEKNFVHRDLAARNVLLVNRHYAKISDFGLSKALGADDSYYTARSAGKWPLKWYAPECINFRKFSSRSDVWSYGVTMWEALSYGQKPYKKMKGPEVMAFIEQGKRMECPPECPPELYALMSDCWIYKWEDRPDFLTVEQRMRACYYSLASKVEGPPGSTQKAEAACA
Briefly: Selectivity interaction (KinomeScan (DiscoverX)) EUB0000695a ZAP70. The conditions noted are these: at 100 nM.

For assay [8], the target named is Angiopoietin-1 receptor (Homo sapiens) (UniProt Q02763). Briefly: Selectivity interaction (KinaseProfiler screening (Millipore)) EUB0000601a TEK. Conditions: at 3 µM.
Assay [9] addresses T3, Activin receptor type-1B (Homo sapiens) (UniProt P36896).
T3 sequence (whole entry): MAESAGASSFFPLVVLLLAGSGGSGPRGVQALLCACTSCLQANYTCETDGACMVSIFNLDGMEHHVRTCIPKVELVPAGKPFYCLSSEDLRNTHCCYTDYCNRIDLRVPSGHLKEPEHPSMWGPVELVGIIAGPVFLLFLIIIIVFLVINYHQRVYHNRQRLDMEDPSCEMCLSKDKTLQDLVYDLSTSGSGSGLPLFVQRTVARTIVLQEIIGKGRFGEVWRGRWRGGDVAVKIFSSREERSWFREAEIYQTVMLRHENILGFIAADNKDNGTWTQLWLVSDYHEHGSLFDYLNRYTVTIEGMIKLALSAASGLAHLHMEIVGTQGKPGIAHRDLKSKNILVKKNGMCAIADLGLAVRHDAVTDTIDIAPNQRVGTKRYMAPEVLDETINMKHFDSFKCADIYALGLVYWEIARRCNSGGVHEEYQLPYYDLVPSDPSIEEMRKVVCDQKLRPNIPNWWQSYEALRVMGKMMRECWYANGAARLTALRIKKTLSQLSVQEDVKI
Briefly: Selectivity interaction (Ambit KINOMEscan and KiNATiv profiling in Jurkat cells) EUB0000090b ACVR1B. The format is cell-based. The conditions noted are these: at 1 µM.

In assay [10] the test system is Tyrosine-protein kinase ABL1 (Homo sapiens), P00519 [F317I]. Kind of assay: Selectivity interaction (KinomeScan (DiscoverX)) EUB0001049a ABL1. Conditions: at 1 µM.
Assay [11] has as its target Microtubule-associated serine/threonine-protein kinase 1 (Homo sapiens) (UniProt Q9Y2H9). Kind of assay: Selectivity interaction (KinomeScan (DiscoverX)) EUB0000092b MAST1. The conditions noted are these: at 10 µM.
For assay [12], the target named is Serine/threonine-protein kinase Chk2 (Homo sapiens) (UniProt O96017). Briefly: Selectivity interaction (KinomeScan (DiscoverX)) EUB0001079a CHEK2. Conditions: at 1 µM.
Sequence of Serine/threonine-protein kinase Chk2 (Homo sapiens) (O96017 whole entry): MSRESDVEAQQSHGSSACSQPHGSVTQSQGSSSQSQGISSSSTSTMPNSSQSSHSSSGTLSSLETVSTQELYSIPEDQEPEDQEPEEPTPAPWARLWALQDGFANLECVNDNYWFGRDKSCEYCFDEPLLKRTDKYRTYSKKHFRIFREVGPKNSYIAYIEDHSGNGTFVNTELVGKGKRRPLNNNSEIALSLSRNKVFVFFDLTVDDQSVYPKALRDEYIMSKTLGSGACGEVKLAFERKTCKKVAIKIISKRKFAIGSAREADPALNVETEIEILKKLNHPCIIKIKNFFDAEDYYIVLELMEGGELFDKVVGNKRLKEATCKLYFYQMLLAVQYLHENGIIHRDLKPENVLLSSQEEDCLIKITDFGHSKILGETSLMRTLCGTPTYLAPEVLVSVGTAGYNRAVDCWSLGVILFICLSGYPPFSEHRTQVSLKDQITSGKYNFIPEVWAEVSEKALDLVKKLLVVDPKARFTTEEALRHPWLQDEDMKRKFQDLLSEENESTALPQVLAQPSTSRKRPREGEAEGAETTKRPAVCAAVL
For assay [13], the target named is Cyclin-dependent kinase 7 (Homo sapiens, UniProt P50613). Briefly: Selectivity interaction (KinomeScan (DiscoverX)) EUB0000229b CDK7. Conditions: at 10 µM.
Sequence of Cyclin-dependent kinase 7 (P50613 whole entry): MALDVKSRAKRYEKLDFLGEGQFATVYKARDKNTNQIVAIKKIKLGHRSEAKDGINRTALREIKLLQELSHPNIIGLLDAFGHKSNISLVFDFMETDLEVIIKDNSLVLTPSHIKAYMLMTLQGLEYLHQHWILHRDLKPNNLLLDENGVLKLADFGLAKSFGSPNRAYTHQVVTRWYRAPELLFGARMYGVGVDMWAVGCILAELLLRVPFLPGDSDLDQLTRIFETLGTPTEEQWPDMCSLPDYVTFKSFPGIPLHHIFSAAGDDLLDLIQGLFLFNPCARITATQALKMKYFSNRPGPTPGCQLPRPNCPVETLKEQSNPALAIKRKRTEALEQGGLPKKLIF

Sequence of Microtubule-associated serine/threonine-protein kinase 1 (Homo sapiens) (Q9Y2H9 whole entry, looked up): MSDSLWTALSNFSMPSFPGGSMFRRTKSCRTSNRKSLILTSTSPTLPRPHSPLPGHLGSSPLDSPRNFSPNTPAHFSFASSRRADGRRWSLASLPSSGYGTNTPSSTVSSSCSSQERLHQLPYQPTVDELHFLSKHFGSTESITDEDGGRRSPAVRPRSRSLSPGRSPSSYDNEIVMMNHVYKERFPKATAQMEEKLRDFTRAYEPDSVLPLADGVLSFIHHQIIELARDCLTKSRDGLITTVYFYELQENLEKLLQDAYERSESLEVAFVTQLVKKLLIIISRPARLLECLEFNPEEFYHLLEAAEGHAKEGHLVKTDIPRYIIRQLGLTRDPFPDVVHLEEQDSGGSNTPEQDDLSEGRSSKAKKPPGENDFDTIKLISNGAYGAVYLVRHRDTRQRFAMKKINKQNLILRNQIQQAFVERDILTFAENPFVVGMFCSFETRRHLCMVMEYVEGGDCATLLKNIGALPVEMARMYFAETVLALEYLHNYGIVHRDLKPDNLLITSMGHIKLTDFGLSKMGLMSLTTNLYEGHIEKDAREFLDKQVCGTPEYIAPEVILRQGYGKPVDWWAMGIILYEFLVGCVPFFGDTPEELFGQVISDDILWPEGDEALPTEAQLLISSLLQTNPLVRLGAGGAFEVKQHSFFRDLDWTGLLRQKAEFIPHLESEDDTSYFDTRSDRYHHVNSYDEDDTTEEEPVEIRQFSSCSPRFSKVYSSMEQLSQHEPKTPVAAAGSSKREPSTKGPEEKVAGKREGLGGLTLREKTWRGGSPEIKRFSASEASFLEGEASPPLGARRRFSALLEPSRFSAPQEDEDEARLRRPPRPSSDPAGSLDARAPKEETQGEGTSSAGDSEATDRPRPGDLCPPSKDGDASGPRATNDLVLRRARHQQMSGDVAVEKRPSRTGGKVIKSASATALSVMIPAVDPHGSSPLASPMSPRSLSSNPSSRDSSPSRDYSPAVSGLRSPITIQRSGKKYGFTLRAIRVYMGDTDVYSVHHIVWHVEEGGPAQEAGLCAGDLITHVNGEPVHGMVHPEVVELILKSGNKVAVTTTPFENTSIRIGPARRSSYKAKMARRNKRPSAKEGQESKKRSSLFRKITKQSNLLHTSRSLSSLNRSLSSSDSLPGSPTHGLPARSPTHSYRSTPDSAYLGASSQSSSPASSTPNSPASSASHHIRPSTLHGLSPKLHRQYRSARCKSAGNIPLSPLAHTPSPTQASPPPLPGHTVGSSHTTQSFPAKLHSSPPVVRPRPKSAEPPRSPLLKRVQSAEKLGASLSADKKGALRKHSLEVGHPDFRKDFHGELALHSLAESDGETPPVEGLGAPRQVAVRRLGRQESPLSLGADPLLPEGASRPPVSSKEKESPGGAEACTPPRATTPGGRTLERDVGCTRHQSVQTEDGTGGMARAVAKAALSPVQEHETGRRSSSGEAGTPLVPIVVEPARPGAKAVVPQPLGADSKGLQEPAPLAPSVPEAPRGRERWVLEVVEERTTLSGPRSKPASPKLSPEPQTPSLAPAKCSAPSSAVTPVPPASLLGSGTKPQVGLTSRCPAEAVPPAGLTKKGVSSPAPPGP
Sequence of Serine/threonine-protein kinase WNK4 (Homo sapiens) (Q96J92 whole entry): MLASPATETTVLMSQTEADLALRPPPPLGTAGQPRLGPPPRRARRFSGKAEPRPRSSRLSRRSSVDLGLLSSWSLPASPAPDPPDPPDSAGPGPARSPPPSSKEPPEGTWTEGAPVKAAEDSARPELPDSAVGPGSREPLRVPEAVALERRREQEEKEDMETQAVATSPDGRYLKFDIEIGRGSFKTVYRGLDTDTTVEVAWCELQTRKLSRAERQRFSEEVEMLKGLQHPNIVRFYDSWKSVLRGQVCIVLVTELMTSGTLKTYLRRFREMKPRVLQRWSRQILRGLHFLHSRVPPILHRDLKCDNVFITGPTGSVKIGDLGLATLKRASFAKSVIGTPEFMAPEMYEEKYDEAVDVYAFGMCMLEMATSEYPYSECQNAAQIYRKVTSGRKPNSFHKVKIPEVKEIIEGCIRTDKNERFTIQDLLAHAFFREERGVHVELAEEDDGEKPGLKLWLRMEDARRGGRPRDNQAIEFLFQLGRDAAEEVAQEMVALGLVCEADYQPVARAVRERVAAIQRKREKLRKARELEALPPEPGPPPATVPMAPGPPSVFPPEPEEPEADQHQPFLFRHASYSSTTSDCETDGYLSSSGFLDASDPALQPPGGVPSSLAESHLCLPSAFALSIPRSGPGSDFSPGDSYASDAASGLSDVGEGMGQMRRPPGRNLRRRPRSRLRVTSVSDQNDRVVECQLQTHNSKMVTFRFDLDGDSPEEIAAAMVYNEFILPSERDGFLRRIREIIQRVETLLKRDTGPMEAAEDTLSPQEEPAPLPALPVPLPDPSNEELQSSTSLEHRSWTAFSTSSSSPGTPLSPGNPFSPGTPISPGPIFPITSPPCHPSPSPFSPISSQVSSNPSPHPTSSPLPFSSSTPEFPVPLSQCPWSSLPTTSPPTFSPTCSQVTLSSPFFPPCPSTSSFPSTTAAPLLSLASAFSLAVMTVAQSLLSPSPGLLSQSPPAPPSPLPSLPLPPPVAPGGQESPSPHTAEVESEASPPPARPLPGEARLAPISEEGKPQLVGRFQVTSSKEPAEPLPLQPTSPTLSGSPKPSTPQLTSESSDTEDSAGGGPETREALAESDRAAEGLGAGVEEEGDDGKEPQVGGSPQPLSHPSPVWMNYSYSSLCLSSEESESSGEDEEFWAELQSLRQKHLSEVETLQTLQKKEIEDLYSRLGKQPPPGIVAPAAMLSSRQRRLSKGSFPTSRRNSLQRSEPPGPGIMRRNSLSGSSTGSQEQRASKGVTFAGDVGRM

With `Cn1cc(-n2cnc3c(NCc4nc5cc(Cl)c(Cl)cc5[nH]4)nc(N4CCOCC4)nc32)cn1`, the % of control in assay [1] was -5.74%.

For `COCC(=O)NC/C=C/c1ccc2ncnc(Nc3ccc(Oc4ccc(C)nc4)c(C)c3)c2c1` [CP-724714], the % of control was found to be 17% in assay [2], 92% in [3] and 53% in [4].

For `CCN(CC)CCCCNc1ncc2cc(-c3cc(OC)cc(OC)c3)c(NC(=O)NC(C)(C)C)nc2n1`, the % of control in [5] worked out at 100%.

In the case of `Cc1cc(F)c(C(=O)Nc2cccc(-c3nncn3C(C)C)n2)cc1-n1cnc(C2CC2)c1`, the % of control in assay [6] and in assay [7] was 100% throughout.

As to `CCc1cc(Nc2nccc(-c3c(-c4ccc(OC)c(C(=O)Nc5c(F)cccc5F)c4)nc4ccccn34)n2)c(OC)cc1N1CCC(N2CCN(S(C)(=O)=O)CC2)CC1`, the % of inhibition in assay [8] came to 41%.

Regarding `CN(C)C/C=C/C(=O)Nc1ccc(C(=O)N2CCCC(Nc3ncc(Cl)c(-c4c[nH]c5ccccc45)n3)C2)cc1` (stereo not drawn), the % of control in assay [9] was determined as 96%.

Take `COc1cc(Nc2nc(C)cc(-c3cnn4nc(OC)ccc34)n2)cc(C(F)(F)F)c1`: the % of control in [10] was 67%.

On to `CCC(=O)N1CCN(c2ccc(-n3c(=O)ccc4cnc5ccc(-c6cnc7ccccc7c6)cc5c43)cc2C(F)(F)F)CC1`, for which the % of control in assay [11] amounted to 93%.

As for `Nc1cnc(N2CCc3cc(S(=O)(=O)Nc4c(F)cc(Cl)cc4F)cc(N4CCCC4=O)c32)nc1` [TP-020n], in [12], the % of control was determined as 92%.

`COc1cc(N(C)c2ccnc3ccc(C(F)(F)F)cc23)cc(OC)c1OC` returned a % binding in assay [13] of 57%.
